Source: ChEMBL document CHEMBL5465560, “Selectivity Literature for EUbOPEN Chemogenomic Library” (2024)
One block for each compound: values may come before it.

Legend:
[1] = biological target: T1, Histone-arginine methyltransferase CARM1 (Homo sapiens, UniProt Q86X55); test: Selectivity interaction (Western Blot (dimethylation of BAF155 (BAF155me2a/BAF155) in KMS-27 cells)) EUB0000255b CARM1; assay type: cell-based
T1 sequence (Q86X55 whole entry): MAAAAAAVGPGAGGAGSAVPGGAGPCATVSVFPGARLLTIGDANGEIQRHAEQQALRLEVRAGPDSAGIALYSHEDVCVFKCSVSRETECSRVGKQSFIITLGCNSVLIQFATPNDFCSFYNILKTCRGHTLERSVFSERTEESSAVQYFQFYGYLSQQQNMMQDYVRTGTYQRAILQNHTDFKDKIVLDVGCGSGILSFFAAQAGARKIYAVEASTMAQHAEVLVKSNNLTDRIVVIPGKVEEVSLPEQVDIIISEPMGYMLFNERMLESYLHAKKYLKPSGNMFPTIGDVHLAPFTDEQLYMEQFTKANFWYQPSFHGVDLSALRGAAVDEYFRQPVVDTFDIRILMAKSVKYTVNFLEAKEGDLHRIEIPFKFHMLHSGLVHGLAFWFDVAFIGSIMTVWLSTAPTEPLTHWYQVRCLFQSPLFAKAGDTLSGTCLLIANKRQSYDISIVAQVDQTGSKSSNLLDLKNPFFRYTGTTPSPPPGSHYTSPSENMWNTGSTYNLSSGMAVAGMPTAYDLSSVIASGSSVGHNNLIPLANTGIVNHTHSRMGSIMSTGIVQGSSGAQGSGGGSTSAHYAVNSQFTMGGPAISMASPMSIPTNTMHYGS

[2] = biological target: T2, Serine/threonine-protein kinase Chk1 (Homo sapiens) (UniProt O14757); test: Selectivity interaction (KinomeScan (DiscoverX)) EUB0000607a CHEK1; settings: at 10 µM
T2 sequence (whole entry): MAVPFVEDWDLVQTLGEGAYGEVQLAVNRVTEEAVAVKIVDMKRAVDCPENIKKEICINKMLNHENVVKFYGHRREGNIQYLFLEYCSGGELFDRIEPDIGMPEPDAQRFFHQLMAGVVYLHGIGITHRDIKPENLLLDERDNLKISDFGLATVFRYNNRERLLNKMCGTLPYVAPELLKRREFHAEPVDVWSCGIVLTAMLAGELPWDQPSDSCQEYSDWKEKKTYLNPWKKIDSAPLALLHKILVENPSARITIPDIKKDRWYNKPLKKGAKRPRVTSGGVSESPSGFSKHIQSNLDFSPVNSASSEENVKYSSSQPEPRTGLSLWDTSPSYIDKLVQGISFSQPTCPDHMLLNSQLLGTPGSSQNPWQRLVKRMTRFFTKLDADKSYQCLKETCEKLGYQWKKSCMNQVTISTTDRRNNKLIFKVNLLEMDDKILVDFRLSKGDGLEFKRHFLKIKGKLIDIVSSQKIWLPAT

[3] = biological target: Cyclin-dependent kinase 14 (Homo sapiens) (UniProt O94921); test: Selectivity interaction (KinomeScan (DiscoverX)) EUB0001619a CDK14; settings: at 1 µM
Cyclin-dependent kinase 14 (Homo sapiens), sequence (O94921 whole entry): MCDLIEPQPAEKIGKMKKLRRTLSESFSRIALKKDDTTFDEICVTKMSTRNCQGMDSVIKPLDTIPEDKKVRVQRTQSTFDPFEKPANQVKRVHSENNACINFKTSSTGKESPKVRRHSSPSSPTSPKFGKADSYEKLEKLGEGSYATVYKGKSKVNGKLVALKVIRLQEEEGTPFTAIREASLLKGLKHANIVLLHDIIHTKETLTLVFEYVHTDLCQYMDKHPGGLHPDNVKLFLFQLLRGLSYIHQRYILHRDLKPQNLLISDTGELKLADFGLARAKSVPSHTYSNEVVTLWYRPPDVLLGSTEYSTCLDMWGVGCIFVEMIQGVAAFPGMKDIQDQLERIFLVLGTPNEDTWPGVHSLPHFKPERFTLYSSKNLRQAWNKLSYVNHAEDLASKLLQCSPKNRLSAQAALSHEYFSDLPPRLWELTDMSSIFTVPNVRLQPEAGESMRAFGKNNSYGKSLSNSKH

[4] = system: Hepatocyte growth factor receptor (Homo sapiens), P08581 [Y1235D]; settings: at 10 µM
Hepatocyte growth factor receptor (Homo sapiens), P08581 [Y1235D], sequence (P08581 whole entry Y1235D): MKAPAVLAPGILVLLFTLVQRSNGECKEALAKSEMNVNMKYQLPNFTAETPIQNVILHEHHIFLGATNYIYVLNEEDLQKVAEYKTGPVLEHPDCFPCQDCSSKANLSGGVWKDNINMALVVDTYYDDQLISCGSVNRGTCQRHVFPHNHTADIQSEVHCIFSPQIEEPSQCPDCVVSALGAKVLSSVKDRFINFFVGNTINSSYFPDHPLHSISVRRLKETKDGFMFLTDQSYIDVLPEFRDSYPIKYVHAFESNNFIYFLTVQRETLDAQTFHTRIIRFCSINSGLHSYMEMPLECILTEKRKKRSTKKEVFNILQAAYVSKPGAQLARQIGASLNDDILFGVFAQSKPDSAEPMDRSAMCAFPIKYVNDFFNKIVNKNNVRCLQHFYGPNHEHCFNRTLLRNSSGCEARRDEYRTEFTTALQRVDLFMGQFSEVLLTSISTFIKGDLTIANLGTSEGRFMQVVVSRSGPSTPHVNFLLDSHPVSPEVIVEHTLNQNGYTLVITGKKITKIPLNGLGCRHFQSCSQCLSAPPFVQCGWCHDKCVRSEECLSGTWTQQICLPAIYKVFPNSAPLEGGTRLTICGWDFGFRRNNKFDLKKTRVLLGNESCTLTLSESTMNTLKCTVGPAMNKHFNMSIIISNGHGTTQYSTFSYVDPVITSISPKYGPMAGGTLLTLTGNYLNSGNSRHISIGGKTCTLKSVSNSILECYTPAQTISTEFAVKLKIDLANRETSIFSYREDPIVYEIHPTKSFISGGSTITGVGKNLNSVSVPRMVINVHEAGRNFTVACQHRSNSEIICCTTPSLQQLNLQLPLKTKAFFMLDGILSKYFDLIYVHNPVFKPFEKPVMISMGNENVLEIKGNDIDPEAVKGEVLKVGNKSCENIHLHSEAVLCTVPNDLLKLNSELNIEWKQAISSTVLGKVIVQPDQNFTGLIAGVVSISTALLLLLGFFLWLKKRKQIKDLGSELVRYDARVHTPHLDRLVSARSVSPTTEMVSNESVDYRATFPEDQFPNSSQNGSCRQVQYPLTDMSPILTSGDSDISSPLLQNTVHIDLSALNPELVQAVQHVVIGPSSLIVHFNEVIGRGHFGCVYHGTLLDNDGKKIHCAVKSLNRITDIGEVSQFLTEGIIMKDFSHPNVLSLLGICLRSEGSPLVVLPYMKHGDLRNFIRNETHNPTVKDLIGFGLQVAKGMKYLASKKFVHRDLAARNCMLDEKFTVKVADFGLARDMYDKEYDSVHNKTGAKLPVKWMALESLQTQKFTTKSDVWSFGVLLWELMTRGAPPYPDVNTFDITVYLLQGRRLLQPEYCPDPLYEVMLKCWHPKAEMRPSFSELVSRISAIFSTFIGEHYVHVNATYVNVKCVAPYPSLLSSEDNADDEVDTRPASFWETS

[5] = biological target: T3, STE20-related kinase adapter protein alpha (Homo sapiens) (UniProt Q7RTN6); test: Selectivity interaction (ActivX KiNativ screen (kinase selectivity in THP-1 cell lysates)) EUB0000639a STRADA; assay type: subcellular; settings: lysate, at 0.04 µM
T3 sequence (whole entry): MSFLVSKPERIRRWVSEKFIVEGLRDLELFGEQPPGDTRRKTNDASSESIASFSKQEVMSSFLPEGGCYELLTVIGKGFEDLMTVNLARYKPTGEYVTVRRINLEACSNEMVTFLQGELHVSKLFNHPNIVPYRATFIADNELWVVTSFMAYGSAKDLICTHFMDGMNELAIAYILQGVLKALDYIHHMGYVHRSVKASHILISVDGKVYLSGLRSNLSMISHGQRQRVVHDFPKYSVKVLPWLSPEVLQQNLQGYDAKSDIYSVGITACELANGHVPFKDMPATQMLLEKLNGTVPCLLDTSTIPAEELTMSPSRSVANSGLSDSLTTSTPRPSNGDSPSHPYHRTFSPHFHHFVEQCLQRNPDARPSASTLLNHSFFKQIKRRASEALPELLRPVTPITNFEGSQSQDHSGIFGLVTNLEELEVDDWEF

[6] = biological target: T4, Serine/threonine-protein kinase ULK3 (Homo sapiens) (UniProt Q6PHR2); test: Selectivity interaction (ActivX KiNativ screen (kinase selectivity in THP-1 cell lysates)) EUB0000639a ULK3; assay type: subcellular; settings: lysate, at 5 µM
T4 sequence (whole entry): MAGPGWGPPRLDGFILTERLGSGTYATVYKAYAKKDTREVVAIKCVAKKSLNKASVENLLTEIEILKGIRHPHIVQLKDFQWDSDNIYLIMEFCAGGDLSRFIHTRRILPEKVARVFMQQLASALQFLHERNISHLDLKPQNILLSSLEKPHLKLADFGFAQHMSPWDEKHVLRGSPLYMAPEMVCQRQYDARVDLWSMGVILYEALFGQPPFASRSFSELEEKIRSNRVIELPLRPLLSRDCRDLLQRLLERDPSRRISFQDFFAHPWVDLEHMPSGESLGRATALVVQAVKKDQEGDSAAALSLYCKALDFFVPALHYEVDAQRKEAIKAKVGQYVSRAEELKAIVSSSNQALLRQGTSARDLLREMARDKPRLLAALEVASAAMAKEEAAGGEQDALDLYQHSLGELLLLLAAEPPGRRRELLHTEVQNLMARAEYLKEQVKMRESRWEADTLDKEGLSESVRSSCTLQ

[7] = biological target: Serine/threonine-protein kinase VRK2 (Homo sapiens) (UniProt Q86Y07); test: Selectivity interaction (ProQinase) EUB0000171b VRK2
Serine/threonine-protein kinase VRK2 (Homo sapiens), sequence (Q86Y07 whole entry): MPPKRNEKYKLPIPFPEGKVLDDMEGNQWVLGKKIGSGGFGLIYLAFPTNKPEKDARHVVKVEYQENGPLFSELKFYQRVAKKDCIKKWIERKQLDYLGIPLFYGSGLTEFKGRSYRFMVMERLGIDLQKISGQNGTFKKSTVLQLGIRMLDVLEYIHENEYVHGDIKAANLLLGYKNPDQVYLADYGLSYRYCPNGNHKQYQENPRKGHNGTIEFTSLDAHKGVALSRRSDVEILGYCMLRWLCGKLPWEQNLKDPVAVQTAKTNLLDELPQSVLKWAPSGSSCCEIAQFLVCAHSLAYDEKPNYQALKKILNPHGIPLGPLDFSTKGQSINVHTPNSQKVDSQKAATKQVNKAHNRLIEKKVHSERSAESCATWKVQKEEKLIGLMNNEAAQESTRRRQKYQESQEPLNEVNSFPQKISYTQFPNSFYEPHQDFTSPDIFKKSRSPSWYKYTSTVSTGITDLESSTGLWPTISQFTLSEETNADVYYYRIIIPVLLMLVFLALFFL

SMILES: COCCN1CCC(c2cc(CN(C)C(=O)c3cccc(Oc4ccccc4)c3)ccn2)CC1
IC50 [1]: > 3 nM

SMILES: CNC(=O)Nc1ccc(-c2nc(N3CC4CCC(C3)O4)c3cnn(C4CCC5(CC4)OCCO5)c3n2)cc1
% of control [2]: 100%

SMILES: N#Cc1cccc(-c2c[nH]c3ncnc(N4CCOCC4)c23)c1
% of control [3]: 100%

SMILES: Cc1cc([C@@H](C)Nc2ccccc2C(=O)O)c2nc(N3CCOCC3)cc(=O)n2c1 [AZD-6482]
% of control [4]: 78%

% of inhibition [5]: -6%
% of inhibition [6]: -10.2%
SMILES: CC[C@@H]1[C@H](F)C(=O)N[C@@H]1COc1nccc2cc(C(N)=O)c(OC)cc12 [ZIMLOVISERTIB]

% of control ([7]; at 1 µM): 97%
% of control ([7]; at 5 µM): 83%
SMILES: C=CC(=O)Nc1cccc(C(=O)Nc2ccc(Nc3cc(-c4[nH]c(SC)nc4C)ccn3)cc2)c1
